Laboratory results reported in ChEMBL document CHEMBL5321257, “Development of VER-50589 analogs as novel Hsp90 inhibitors” (Bioorg Med Chem Lett, 2023).
“And” between values parts separate entries of the source, which are not always exact repeats. Equal values may be shown once. The source made the active and inactive calls. The calls are words filed in the database; no cut-off is given here.

Experiments:
ES-2 = assay: Cytotoxicity against human ES2 cells by MTT assay; type: functional, cell-based
MCF7 = assay: Cytotoxicity against human MCF7 cells by MTT assay; type: functional, cell-based
MDA-MB-231 = assay: Cytotoxicity against human MDA-MB-231 cells by MTT assay; type: functional, cell-based
Heat shock protein HSP90 [1] = biological target: T1, Heat shock protein HSP90 (Homo sapiens, UniProt P07900+P08238); assay: Inhibition of Hsp90 (unknown origin); type: protein assay
[2] = Cytotoxicity against human 95-D cells by MTT assay; type: functional, cell-based
HeLa = assay: Cytotoxicity against human HeLa cells by MTT assay; type: functional, cell-based
A549 [3] = assay: Cytotoxicity against human A549 cells by MTT assay; type: functional, cell-based
A549 [4] = assay: Induction of cell cycle arrest in human A549 cells assessed as accumulation at G2/G1 phase at 200 nM incubated for 48 hrs by flow cytometry (reference value: 2 %); type: functional
A549 [5] = assay: Induction of cell cycle arrest in human A549 cells assessed as accumulation at G2/G1 phase at 50 nM incubated for 48 hrs by flow cytometry (reference value: 2 %); type: functional
Heat shock protein HSP90 [6] = biological target: T1, Heat shock protein HSP90; assay: Inhibition of Hsp90 in human A549 cells assessed as downregulation of CDK4 level by Western blot analysis; type: cell-based; conditions: dose 25-100 nM
A549 [7] = assay: Induction of apoptosis in human A549 cells assessed as late apoptotic cells at 50 nM incubated for 48 hrs by annexin V-FITC/7-AAD staining based flow cytometry (reference value: 0.64 %); type: functional
A549 [8] = assay: Induction of cell cycle arrest in human A549 cells assessed as accumulation at S phase at 50 nM incubated for 48 hrs by flow cytometry (reference value: 35.77 %); type: functional
A549 [9] = assay: Induction of cell cycle arrest in human A549 cells assessed as accumulation at S phase at 10 nM incubated for 48 hrs by flow cytometry (reference value: 35.77 %); type: functional
A549 [10] = assay: Induction of apoptosis in human A549 cells assessed as viable cells at 50 nM incubated for 48 hrs by annexin V-FITC/7-AAD staining based flow cytometry (reference value: 96.1 %); type: functional; conditions: read-out: Activity
A549 [11] = assay: Induction of apoptosis in human A549 cells assessed as late apoptotic cells at 200 nM incubated for 48 hrs by annexin V-FITC/7-AAD staining based flow cytometry (reference value: 0.64 %); type: functional
A549 [12] = assay: Induction of cell cycle arrest in human A549 cells assessed as accumulation at G1 phase at 50 nM incubated for 48 hrs by flow cytometry (reference value: 61.70 %); type: functional
A549 [13] = assay: Induction of apoptosis in human A549 cells assessed as early apoptotic cells at 200 nM incubated for 48 hrs by annexin V-FITC/7-AAD staining based flow cytometry (reference value: 0.32 %); type: functional
A549 [14] = assay: Induction of cell cycle arrest in human A549 cells assessed as accumulation at G2 phase at 10 nM incubated for 48 hrs by flow cytometry (reference value: 2.53 %); type: functional
A549 [15] = assay: Induction of apoptosis in human A549 cells assessed as viable cells at 200 nM incubated for 48 hrs by annexin V-FITC/7-AAD staining based flow cytometry (reference value: 96.1 %); type: functional; conditions: read-out: Activity
A549 [16] = assay: Induction of cell cycle arrest in human A549 cells assessed as accumulation at G2 phase at 200 nM incubated for 48 hrs by flow cytometry (reference value: 2.53 %); type: functional
A549 [17] = assay: Induction of apoptosis in human A549 cells assessed as necrotic cells at 200 nM incubated for 48 hrs by annexin V-FITC/7-AAD staining based flow cytometry (reference value: 0.92 %); type: functional
A549 [18] = assay: Induction of cell cycle arrest in human A549 cells assessed as accumulation at S phase at 200 nM incubated for 48 hrs by flow cytometry (reference value: 35.77 %); type: functional
A549 [19] = assay: Induction of cell cycle arrest in human A549 cells assessed as accumulation at G2/G1 phase at 10 nM incubated for 48 hrs by flow cytometry (reference value: 2 %); type: functional
A549 [20] = assay: Induction of apoptosis in human A549 cells assessed as necrotic cells at 10 nM incubated for 48 hrs by annexin V-FITC/7-AAD staining based flow cytometry (reference value: 0.92 %); type: functional
A549 [21] = assay: Induction of apoptosis in human A549 cells assessed as viable cells at 10 nM incubated for 48 hrs by annexin V-FITC/7-AAD staining based flow cytometry (reference value: 96.1 %); type: functional; conditions: read-out: Activity
A549 [22] = assay: Induction of apoptosis in human A549 cells assessed as necrotic cells at 50 nM incubated for 48 hrs by annexin V-FITC/7-AAD staining based flow cytometry (reference value: 0.92 %); type: functional
A549 [23] = assay: Inhibition of colony formation in human A549 cells; type: functional, cell-based; conditions: dose 10-20 nM
A549 [24] = assay: Induction of cell cycle arrest in human A549 cells assessed as accumulation at G1 phase at 200 nM incubated for 48 hrs by flow cytometry (reference value: 61.70 %); type: functional
A549 [25] = assay: Induction of apoptosis in human A549 cells assessed as early apoptotic cells at 50 nM incubated for 48 hrs by annexin V-FITC/7-AAD staining based flow cytometry (reference value: 0.32 %); type: functional
A549 [26] = assay: Induction of cell cycle arrest in human A549 cells assessed as accumulation at G2 phase at 50 nM incubated for 48 hrs by flow cytometry (reference value: 2.53 %); type: functional
Heat shock protein HSP90 [27] = biological target: T1, Heat shock protein HSP90; assay: Inhibition of Hsp90 in human A549 cells assessed as upregulation of Hsp70 level at 25 to 100 nM by Western blot analysis; type: cell-based; conditions: dose 25-100 nM
A549 [28] = assay: Induction of apoptosis in human A549 cells assessed as early apoptotic cells at 10 nM incubated for 48 hrs by annexin V-FITC/7-AAD staining based flow cytometry (reference value: 0.32 %); type: functional
A549 [29] = assay: Induction of apoptosis in human A549 cells assessed as late apoptotic cells at 10 nM incubated for 48 hrs by annexin V-FITC/7-AAD staining based flow cytometry (reference value: 0.64 %); type: functional
Heat shock protein HSP90 [30] = biological target: T1, Heat shock protein HSP90; assay: Inhibition of Hsp90 in human A549 cells assessed as downregulation of HER2 level by Western blot analysis; type: cell-based; conditions: dose 25-100 nM
A549 [31] = assay: Induction of cell cycle arrest in human A549 cells assessed as accumulation at G1 phase at 10 nM incubated for 48 hrs by flow cytometry (reference value: 61.70 %); type: functional
A549 [32] = assay: Anti-migration activity in human A549 cells at 0.3 to 3 nM incubated for 48 hrs by scratch wound healing assay; type: functional, cell-based; conditions: dose 0.3-3 nM

Row | Compound | IC50 (ES-2) [µM] | IC50 (MCF7) [µM] | IC50 (MDA-MB-231) [µM] | IC50 (Heat shock protein HSP90 [1]) [µM] | IC50 [2] [µM] | IC50 (HeLa) [µM] | IC50 (A549 [3]) [µM] | Activity (A549 [4]) [%] | Activity (A549 [5]) [%] | Activity (A549 [7]) [%] | Activity (A549 [8]) [%] | viability at 0.05 µM (A549 [10]) [%] | Activity (A549 [12]) [%] | Activity (A549 [13]) [%] | viability at 0.2 µM (A549 [15]) [%] | Activity (A549 [16]) [%] | Activity (A549 [17]) [%] | Activity (A549 [18]) [%] | Activity (A549 [22]) [%] | Activity (A549 [24]) [%] | also measured
1 | CCNC(=O)c1noc(-c2cc(C(C)C)c(O)cc2O)c1-c1ccc([N+](=O)[O-])cc1 | 0.0124 | 0.00289 | 0.00526 | 0.015 | 0.00291 | 0.019 | 0.0162 |  |  |  |  |  |  |  |  |  |  |  |  |  | 
2 | CCNC(=O)c1noc(-c2cc(C(C)C)c(O)cc2O)c1-c1ccc(P(C)(C)=O)cc1 | 0.156 | 0.23 | 0.214 | 0.171 | 0.676 | 0.21 | 0.73 |  |  |  |  |  |  |  |  |  |  |  |  |  | 
3 | CCNC(=O)c1noc(-c2cc(Cl)c(O)cc2O)c1-c1ccc(OC)cc1 | 0.0504 | 0.0696 | 0.0758 |  |  | 0.219 | 0.223 |  |  |  |  |  |  |  |  |  |  |  |  |  | 
4 | CCNC(=O)c1noc(-c2cc(C(C)C)c(O)cc2O)c1-c1ccc(S(C)(=O)=O)cc1 | 0.0086 | 0.00135 | 0.00281 | 0.009 | 0.00169 | 0.002 | 0.00865 | 2 | 2 | 3.1 | 15.68 | 93 | 70.94 | 5.98 | 82.5 | 14.76 | 2.94 | 6.98 | 2.24 | 78.26 | inhibition (Heat shock protein HSP90 [6]): Dose-Dependent Effect; Activity (A549 [9]): 41.43%; Activity (A549 [11]; 48 h, 0.2 µM): 2.74% and 8.59%; Activity (A549 [14]): 3.19%; Activity (A549 [19]): 2%; Activity (A549 [20]): 0.59%; viability at 0.01 µM (A549 [21]): 95.5%; inhibition (A549 [23]): Dose-Dependent Effect; Activity (A549 [25]): 1.7%; Activity (A549 [26]): 13.38%; inhibition (Heat shock protein HSP90 [27]): Active; Activity (A549 [28]): 2.74%; Activity (A549 [29]): 1.15%; inhibition (Heat shock protein HSP90 [30]): Dose-Dependent Effect; Activity (A549 [31]): 55.38%; Activity (A549 [32]): Active
5 | COC1=C2C[C@@H](C)C[C@H](OC)[C@H](O)[C@@H](C)/C=C(\C)[C@H](OC(N)=O)[C@@H](OC)/C=C\C=C(/C)C(=O)NC(=CC1=O)C2=O [GELDANAMYCIN] |  |  |  |  |  |  |  | 2 | 2 | 2.58 | 35.64 | 93.3 | 60.64 | 3.26 | 90.6 | 9.03 | 2.38 | 22 | 2.31 | 68.97 | Activity (A549 [11]): 3.77%; Activity (A549 [25]): 1.78%; Activity (A549 [26]): 3.72%
